Measurements from US20250074911A1, “MACROCYCLIC BTK INHIBITORS” (Crossfire Oncology Holding B.V., priority 2021, published 2025).
Like-named read-outs stand apart in the source and are kept apart here.

How the values were obtained:
[1] = molecular target: full-length wt-BTK enzyme (Homo sapiens (Human), UniProt Q06187); assay: Biochemical kinase assay wt-BTK (IMAP)
Method in brief: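 Compound and enzyme (final 1.2 nM) were pre-incubated for 1 h at RT, after which the reaction was started with 4 μM ATP plus 50 nM fluorescein-MBP substrate peptide. After 2 h in the dark, the IMAP progressive binding reagent stopped the reaction, and phosphorylation was read by fluorescence polarization.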

[2] = molecular target: full-length BTK C481S enzyme (Homo sapiens (Human), UniProt Q06187, C481S); assay: Biochemical kinase assay BTK C481S (IMAP)
Sequence of full-length BTK C481S enzyme (Q06187 whole entry C481S): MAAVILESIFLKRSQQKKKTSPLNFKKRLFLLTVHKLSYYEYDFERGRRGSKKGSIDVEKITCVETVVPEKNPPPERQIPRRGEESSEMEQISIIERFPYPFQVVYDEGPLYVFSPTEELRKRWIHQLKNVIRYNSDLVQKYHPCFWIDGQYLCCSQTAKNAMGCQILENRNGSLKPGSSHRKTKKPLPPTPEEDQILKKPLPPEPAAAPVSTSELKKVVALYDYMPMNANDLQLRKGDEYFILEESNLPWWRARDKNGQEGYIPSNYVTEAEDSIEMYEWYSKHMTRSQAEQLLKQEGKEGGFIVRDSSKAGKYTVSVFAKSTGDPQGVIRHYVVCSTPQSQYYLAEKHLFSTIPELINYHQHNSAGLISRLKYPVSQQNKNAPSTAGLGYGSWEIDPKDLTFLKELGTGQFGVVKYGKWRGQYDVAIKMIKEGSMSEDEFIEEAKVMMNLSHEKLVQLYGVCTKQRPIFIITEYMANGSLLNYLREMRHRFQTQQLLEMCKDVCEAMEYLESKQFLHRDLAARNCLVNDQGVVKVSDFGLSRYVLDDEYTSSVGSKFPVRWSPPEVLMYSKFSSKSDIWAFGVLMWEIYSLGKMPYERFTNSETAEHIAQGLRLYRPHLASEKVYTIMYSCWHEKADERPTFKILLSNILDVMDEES
Method in brief: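 IC50 values come from IMAP fluorescence polarization after quenching with progressive binding solution. The reaction ran 2 h at room temperature in the dark with 1.2 nM full-length C481S enzyme, 7 μM ATP and 50 nM fluorescein-labelled MBP-derived peptide, following a 1 h dark pre-incubation of compound with enzyme.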

[3] = system: wt-REC-1 mantle cell lymphoma cells; assay: Cell proliferation assay wt-REC-1 (ATPlite, 72 hours); assay type: cell-based; details: read-out: IC50 wt-REC-1
Method in brief: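 Luminescent viability read over 72 h, start-of-incubation signal recorded separately to separate growth from cell death. Percentage growth referenced to compound-free 0.3% DMSO wells; IC50 from 4-parameter logistic fit.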

REC-1 T474I cell lines = assay: Cell proliferation assay REC-1 BTK T474I knock-in cells (ATPlite, 72 hours); assay type: cell-based; details: 72 hours, read-out: IC50 REC-1 T474I
Method in brief: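 REC-1 cells carrying CRISPR knock-in mutant BTK, single-cell cloned and sequence-confirmed, were exposed to compound for 72 h and read by ATPlite luminescence. Percentage growth was calculated against the signal at the start of incubation and against untreated 0.3% DMSO wells as maximum growth.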

[4] = system: wt-TMD8 diffuse large B-cell lymphoma cells; assay: Cell proliferation assay wt-TMD8 (ATPlite, 120 hours); assay type: cell-based; details: wt-TMD8 cells, 120 hours, ATPlite, read-out: IC50 wt-TMD8
Method in brief: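 Readout is percentage growth from ATPlite 1Step luminescence after 5 days (120 h) compound treatment of wt-TMD8 lymphoma cells (1600/well, RPMI-1640 + 10% FBS). Time-zero signal separates growth inhibition from cell kill; 0.3% DMSO wells without compound define maximal growth.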

wt-BTK = wt-BTK (Homo sapiens (Human), UniProt Q06187); assay: Binding kinetics measurements (Surface Plasmon Resonance) on wt-BTK; details: target residence time, SPR
Sequence of wt-BTK (Q06187 whole entry): as the sequence (Q06187 whole entry C481S) above, with S481C counted along it
Procedure: Binding kinetics measurements on wt-BTK, BTK […], BTK […], BTK […] and BTK […] (Surface Plasmon Resonance) Streptavidin-coated chips (Cat. No. BR100531), disposables and maintenance kits for Biacore were purchased from Cytiva (Eindhoven, The Netherlands). […] Remaining streptavidin was blocked with biocytin. Immobilization was performed at 4° C. Subsequent assay steps were conducted at 22° C. After changing buffer to Biacore buffer with 1% (v/v) dimethylsulfoxide (DMSO), a pre-run was performed for a period of at least 30 min at a flow rate of 30 μl/min to obtain a stable surface. The kinetic constants of the compounds were determined with single cycle kinetics with five consecutive injections with an increasing compound concentration with ranges of 3.16-316 nM. […] To circumvent problems of mass transport limitation, a flow rate of 30 μl/min was used. A blank run with the same conditions was performed before the compound was injected. The SPR sensorgrams were analyzed with Biacore Evaluation Software by using a method of double referencing. First the reference channel was subtracted from the channel containing immobilized protein. Subsequently, the reference curve obtained with buffer injections was subtracted. […] Compounds that bound according to an induced fit model were fitted with a two-state reaction model. The kinetic constants (ka, […], KD) of duplicates were geometrically averaged. […] Target residence for an induced fit model was calculated as described (Tummino and Copeland, 2008).

Sequence of full-length wt-BTK enzyme (Q06187 whole entry): as the sequence (Q06187 whole entry C481S) above, with S481C counted along it

| SMILES | IC50 [1] [µM] | IC50 [2] [µM] | IC50 ([3]; 72 h) [µM] | IC50 (REC-1 T474I cell lines; Homo sapiens, Rec1) [µM] | IC50 ([4]; B-cell) [µM] | IC50 ([3]; 72 hours) [µM] | IC50 (REC-1 T474I cell lines) [µM] | IC50 [4] [µM] | Tau (h) wt-BTK (Act) (wt-BTK) [h] |
| --- | --- | --- | --- | --- | --- | --- | --- | --- | --- |
| C[C@@H]1CNC(=O)[C@@H]2CCC[C@H](C2)n2nc(-c3ccc(C(=O)Nc4cc(C(F)(F)F)ccn4)cc3)c3c(N)ncc(c32)/C=C/CO1 [Example 149] | < 0.005 | < 0.005 | 0.1 to 1 | < 0.1 | < 0.1 |  |  |  |  |
| C[C@@H]1CNC(=O)[C@@H]2CCC[C@H](C2)n2nc(-c3ccc(C(=O)Nc4cc(C(F)(F)F)ccn4)cc3)c3c(N)ncc(c32)/C=C/CN1C [Example 154] | < 0.005 | < 0.005 | 1 to 10 | 0.5 to 10 | < 0.1 |  |  |  |  |
| C[C@@H]1CCn2nc(-c3ccc(C(=O)Nc4cc(C(F)(F)F)ccn4)cc3)c3c(N)ncc(c32)/C=C/CCO[C@@H](C)CC(=O)N1 [Example 158] | < 0.005 | < 0.005 | 0.1 to 1 | 0.5 to 10 | < 0.1 |  |  |  |  |
| C[C@@H]1CC(=O)N[C@@H]2CCC[C@H](C2)n2nc(-c3ccc(C(=O)Nc4cc(C(F)(F)F)ccn4)cc3)c3c(N)ncc(c32)/C=C/CN1 [Example 160] | < 0.005 | < 0.005 | < 0.1 | 0.1 to 0.5 | < 0.1 |  |  |  |  |
| C[C@H]1CC(=O)N[C@@H]2CCC[C@H](C2)n2nc(-c3ccc(C(=O)Nc4cc(C#N)ccn4)cc3)c3c(N)ncc(c32)/C=C/CCO1 [Example 161] | < 0.005 | < 0.005 | < 0.1 | < 0.1 | < 0.1 |  |  |  |  |
| CC(=O)N1CCC/C=C/c2cnc(N)c3c(-c4ccc(C(=O)Nc5cc(C(F)(F)F)ccn5)cc4)nn(c23)[C@@H]2CCC[C@H](C2)NC(=O)C1 [Example 167] | < 0.005 | < 0.005 | < 0.1 | 0.1 to 0.5 | < 0.1 |  |  |  |  |
| C[C@@H]1CCn2nc(-c3cnn(Cc4ccccc4)c3)c3c(N)ncc(c32)/C=C/CCCCCC(=O)N1 [Example 171] | 0.05 to 0.5 | 0.05 to 0.5 | 1 to 10 | 0.5 to 10 | 1 to 10 |  |  |  |  |
| C[C@@H]1CCn2nc(-c3ccc(Oc4ccccc4)cc3)c3c(N)ncc(c32)/C=C/CCCCCC(=O)N1 [Example 173] | < 0.005 | < 0.005 | < 0.1 | 0.5 to 10 | < 0.1 |  |  |  |  |
| Nc1ncc2n3c(nc(-c4ccc(C(=O)Nc5cc(C(F)(F)F)ccn5)cc4)c13)[C@@H]1CCC[C@H](C1)NC(=O)CCOCC/C=C/2 [Example 177] | < 0.005 | < 0.005 | < 0.1 | 0.1 to 0.5 | < 0.1 |  |  |  |  |
| Nc1ncc2n3c(nc(-c4ccc(C(=O)Nc5cc(C(F)(F)F)ccn5)cc4)c13)[C@@H]1CCC[C@H](C1)NC(=O)CCOC/C=C/2 [Example 178] | < 0.005 | < 0.005 | < 0.1 | 0.1 to 0.5 | < 0.1 |  |  |  |  |
| CC(=O)N1CC/C=C/c2cnc(N)c3c(-c4ccc(C(=O)Nc5cc(C(F)(F)F)ccn5)cc4)nn(c23)[C@@H]2CCC[C@H](C2)NC(=O)C[C@H]1C [Example 190] | < 0.005 | < 0.005 | 1 to 10 | 0.5 to 10 | < 0.1 |  |  |  |  |
| C[C@@H]1CC(=O)N[C@@H]2CCC[C@H](C2)n2nc(-c3ccc(C(=O)Nc4cc(F)ccn4)cc3)c3c(N)ncc(c32)/C=C/CCN1 [Example 191] | < 0.005 | < 0.005 | < 0.1 | < 0.1 | < 0.1 |  |  |  |  |
| COc1cc(-c2nn3c4c(cnc(N)c24)/C=C/CCN[C@H](C)CC(=O)N[C@@H]2CCC[C@@H]3C2)ccc1C(=O)Nc1cc(C(F)(F)F)ccn1 [Example 194] | < 0.005 | < 0.005 | < 0.1 | 0.5 to 10 | < 0.1 |  |  |  |  |
| Nc1ncc2c3c1c(-c1ccc(C(=O)Nc4cc(F)ccn4)cc1)nn3[C@@H]1CCC[C@H](C1)NC(=O)CCCCC/C=C/2 [Example 196] | < 0.005 | < 0.005 | < 0.1 | < 0.1 | < 0.1 |  |  |  |  |
| COc1cc(-c2nn3c4c(cnc(N)c24)/C=C/CCCCCC(=O)N[C@@H]2CCC[C@@H]3C2)ccc1C(=O)Nc1cc(C(F)(F)F)ccn1 [Example 197] | < 0.005 | < 0.005 | < 0.1 | 0.1 to 0.5 | < 0.1 |  |  |  |  |
| C[C@@H]1CC(=O)N[C@@H]2CCC[C@H](C2)c2nc(-c3ccc(C(=O)Nc4cc(C#N)ccn4)cc3)c3c(N)ncc(n23)/C=C/CCN1 [Example 206] | < 0.005 | < 0.005 | < 0.1 | 0.5 to 10 | < 0.1 |  |  |  |  |
| C[C@@H]1CC(=O)N[C@@H]2CC[C@H](C2)c2nc(-c3ccc(C(=O)Nc4cc(C#N)ccn4)cc3)c3c(N)ncc(n23)/C=C/CCN1 [Example 208] | < 0.005 | < 0.005 |  | 0.5 to 10 | < 0.1 | 1 to 10 |  |  |  |
| Nc1ncc2n3c(nc(-c4ccc(C(=O)Nc5cc(C(F)(F)F)ccn5)cc4)c13)[C@@H]1CC[C@H](C1)NC(=O)CNCC/C=C/2 [Example 209] | < 0.005 | < 0.005 | < 0.1 | 0.5 to 10 | < 0.1 |  |  |  |  |
| COc1ccc(F)cc1C(=O)NCc1ccc(-c2nc3n4c(cnc(N)c24)/C=C/CCN[C@H](C)CC(=O)N[C@@H]2CCC[C@@H]3C2)cc1 [Example 212] | < 0.005 | < 0.005 | < 0.1 | 0.5 to 10 | < 0.1 |  |  |  |  |
| COc1ccc(F)cc1C(=O)NCc1ccc(-c2nc3n4c(cnc(N)c24)/C=C/CCN[C@H](C)CC(=O)N[C@@H]2CC[C@@H]3C2)cc1 [Example 214] | < 0.005 | < 0.005 | 0.1 to 1 | 0.5 to 10 | < 0.1 |  |  |  |  |
| C[C@@H]1CC(=O)N[C@@H]2CC[C@H](C2)c2nc(-c3ccc(C(=O)Nc4cc(C#N)ccn4)cc3)c3c(N)ncc(n23)/C=C/CCN1 [Example 218] | < 0.005 | < 0.005 |  |  |  | < 0.1 | 0.5 to 10 | < 0.1 |  |
| COc1ccc(F)cc1C(=O)NCc1ccc(-c2nc3n4c(cnc(N)c24)/C=C/CCNCC(=O)N[C@@H]2CC[C@@H]3C2)cc1 [Example 219] | < 0.005 | < 0.005 | 0.1 to 1 | 0.5 to 10 | < 0.1 |  |  |  |  |
| CC(=O)N1CC/C=C/c2cnc(N)c3c(-c4ccc(C(=O)Nc5cc(C(F)(F)F)ccn5)cc4)nc(n23)[C@@H]2CC[C@H](C2)NC(=O)C1 [Example 220] | < 0.005 | < 0.005 | 1 to 10 | 0.5 to 10 | < 0.1 |  |  |  |  |
| COc1ccc(F)cc1C(=O)NCc1ccc(-c2nc3n4c(cnc(N)c24)/C=C/CCN(C(C)=O)CC(=O)N[C@@H]2CC[C@@H]3C2)cc1 [Example 221] | < 0.005 | < 0.005 | 1 to 10 | 0.5 to 10 | < 0.1 |  |  |  |  |
| Nc1ncc2n3c(nc(-c4ccc(C(=O)Nc5cc(C6CC6)ccn5)cc4)c13)[C@@H]1CC[C@H](C1)NC(=O)CCOCC/C=C/2 [Example 223] | < 0.005 | < 0.005 | < 0.1 | 0.1 to 0.5 | < 0.1 |  |  |  | 2.52 |
| CC(=O)N1C[C@@H]2C[C@@H]1C(=O)NCCCCC/C=C/c1cnc(N)c3c(-c4ccc(C(=O)Nc5cc(C(F)(F)F)ccn5)cc4)nn2c13 [Example 226] | < 0.005 | < 0.005 | 1 to 10 | 0.5 to 10 |  |  |  |  | 2.76 |
